How the values were obtained:
Type in all cases: in vivo
[1] = system: Italian ryegrass (Lolium multiflorum); assay: Test A preemergence, visual plant response rating; conditions: for Ryegrass, Italian plant response rating: 125 g ai/ha, preemergence, 0 to 100 scale, 0 no effect, 100 complete control; for Ryegrass, Italian plant response rating (0 to 100 scale): 500 g ai/ha Preemergence, approx. 10 days
Method in brief: (§1)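 Greenhouse pot test in loam–sand soil mix: compound in a surfactant-containing non-phytotoxic solvent applied preemergence (directed soil spray) or postemergence (one- to two-leaf plants, 2–10 cm). Injury scored visually after ~10 days, 0–100.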

[2] = system: barnyardgrass (Echinochloa crus-galli); assay: Test A preemergence, visual plant response rating; conditions: for Barnyardgrass plant response rating: 125 g ai/ha, preemergence, 0 to 100 scale, 0 no effect, 100 complete control; for Barnyardgrass plant response rating (0 to 100 scale): 500 g ai/ha Preemergence, approx. 10 days
Method in brief: as §1

[3] = system: foxtail, giant (giant foxtail, Setaria faberii); assay: Test A preemergence, visual plant response rating; conditions: for Foxtail, Giant plant response rating: 125 g ai/ha, preemergence, 0 to 100 scale, 0 no effect, 100 complete control; for Foxtail, Giant plant response rating (0 to 100 scale): 500 g ai/ha Preemergence, approx. 10 days
Method in brief: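 Ratings use a 0–100 visual scale (100 = complete control) against untreated controls, scored about 10 days after greenhouse treatment. Test chemicals were formulated in surfactant-containing non-phytotoxic solvent and applied either as soil spray after planting (preemergence) or onto one- to two-leaf, 2–10 cm plants (postemergence).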

kochia (Kochia scoparia) [4] = assay: Test A preemergence, visual plant response rating; conditions: for Kochia plant response rating: 125 g ai/ha, preemergence, 0 to 100 scale, 0 no effect, 100 complete control; for Kochia plant response rating (0 to 100 scale): 500 g ai/ha Preemergence, approx. 10 days
Method in brief: as §1

[5] = system: pigweed (Amaranthus retroflexus); assay: Test A preemergence, visual plant response rating; conditions: for Pigweed plant response rating: 125 g ai/ha, preemergence, 0 to 100 scale, 0 no effect, 100 complete control; for Pigweed plant response rating (0 to 100 scale): 500 g ai/ha Preemergence, approx. 10 days
Method in brief: as §1

[6] = system: ragweed (common ragweed, Ambrosia elatior); assay: Test A preemergence, visual plant response rating; conditions: for Ragweed plant response rating: 125 g ai/ha, preemergence, 0 to 100 scale, 0 no effect, 100 complete control; for Ragweed plant response rating (0 to 100 scale): 500 g ai/ha Preemergence, approx. 10 days
Method in brief: as §1

[7] = system: Italian ryegrass (Lolium multiflorum); assay: Test A postemergence, visual plant response rating; conditions: for Ryegrass, Italian plant response rating (0 to 100 scale): 500 g ai/ha, postemergence, 0 is no effect, 100 is complete control; for Ryegrass, Italian plant response rating: Postemergence, 125 g ai/ha, 0 to 100 scale (0 no effect, 100 complete control)
Method in brief: as §1

[8] = system: barnyardgrass (Echinochloa crus-galli); assay: Test A postemergence, visual plant response rating; conditions: for Barnyardgrass plant response rating (0 to 100 scale): 500 g ai/ha, postemergence, 0 is no effect, 100 is complete control; for Barnyardgrass plant response rating: Postemergence, 125 g ai/ha, 0 to 100 scale (0 no effect, 100 complete control)
Method in brief: as §1

[9] = system: blackgrass (Alopecurus myosuroides); assay: Test A postemergence, visual plant response rating; conditions: for Blackgrass plant response rating (0 to 100 scale): 500 g ai/ha, postemergence, 0 is no effect, 100 is complete control; for Blackgrass plant response rating: Postemergence, 125 g ai/ha, 0 to 100 scale (0 no effect, 100 complete control)
Method in brief: as §1

corn (Zea mays) = assay: Test A postemergence, visual plant response rating; conditions: for Corn plant response rating (0 to 100 scale): 500 g ai/ha, postemergence, 0 is no effect, 100 is complete control; for Corn plant response rating: Postemergence, 125 g ai/ha, 0 to 100 scale (0 no effect, 100 complete control)
Method in brief: as §1

[10] = system: foxtail, giant (giant foxtail, Setaria faberii); assay: Test A postemergence, visual plant response rating; conditions: for Foxtail, Giant plant response rating (0 to 100 scale): 500 g ai/ha, postemergence, 0 is no effect, 100 is complete control; for Foxtail, Giant plant response rating: Postemergence, 125 g ai/ha, 0 to 100 scale (0 no effect, 100 complete control)
Method in brief: as §1

[11] = system: galium (catchweed bedstraw, Galium aparine); assay: Test A postemergence, visual plant response rating; conditions: for Galium plant response rating (0 to 100 scale): 500 g ai/ha, postemergence, 0 is no effect, 100 is complete control; for Galium plant response rating: Postemergence, 125 g ai/ha, 0 to 100 scale (0 no effect, 100 complete control)
Method in brief: as §1

kochia (Kochia scoparia) [12] = assay: Test A postemergence, visual plant response rating; conditions: for Kochia plant response rating (0 to 100 scale): 500 g ai/ha, postemergence, 0 is no effect, 100 is complete control; for Kochia plant response rating: Postemergence, 125 g ai/ha, 0 to 100 scale (0 no effect, 100 complete control)
Method in brief: as §1

[13] = system: pigweed (Amaranthus retroflexus); assay: Test A postemergence, visual plant response rating; conditions: for Pigweed plant response rating (0 to 100 scale): 500 g ai/ha, postemergence, 0 is no effect, 100 is complete control; for Pigweed plant response rating: Postemergence, 125 g ai/ha, 0 to 100 scale (0 no effect, 100 complete control)
Method in brief: as §1

[14] = system: ragweed (common ragweed, Ambrosia elatior); assay: Test A postemergence, visual plant response rating; conditions: for Ragweed plant response rating (0 to 100 scale): 500 g ai/ha, postemergence, 0 is no effect, 100 is complete control; for Ragweed plant response rating: Postemergence, 125 g ai/ha, 0 to 100 scale (0 no effect, 100 complete control)
Method in brief: as §1

[15] = system: wheat (Triticum aestivum); assay: Test A postemergence, visual plant response rating; conditions: for Wheat plant response rating (0 to 100 scale): 500 g ai/ha, postemergence, 0 is no effect, 100 is complete control; for Wheat plant response rating: Postemergence, 125 g ai/ha, 0 to 100 scale (0 no effect, 100 complete control)
Method in brief: as §1

[16] = system: barnyardgrass (Echinochloa crus-galli); assay: Test B flooded paddy test, visual plant response rating; conditions: 250 g ai/ha, Flood, applied to paddy water, 2-leaf stage, evaluated after 13 to 15 days
Method in brief: (§2)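 2-leaf plants; pots flooded 3 cm over soil surface; compound dosed straight into the floodwater; depth kept constant; greenhouse 13–15 d; visual rating vs. untreated controls.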

[17] = system: ducksalad (Heteranhera limosa); assay: as above; conditions: 250 g ai/ha, Flood, applied to paddy water, 2-leaf stage, evaluated after 13 to 15 days
Method in brief: as §2

rice (Oryza sativa) = assay: as above; conditions: 250 g ai/ha, Flood, applied to paddy water, 2-leaf stage, evaluated after 13 to 15 days
Method in brief: as §2

[18] = system: sedge, umbrella (small-flower umbrella sedge, Cyperus difformis); assay: as above; conditions: 250 g ai/ha, Flood, applied to paddy water, 2-leaf stage, evaluated after 13 to 15 days
Method in brief: as §2

| SMILES | Ryegrass, Italian plant response rating [1] | Ryegrass, Italian plant response rating (0 to 100 scale) [1] | Barnyardgrass plant response rating [2] | Barnyardgrass plant response rating (0 to 100 scale) [2] | Foxtail, Giant plant response rating [3] | Foxtail, Giant plant response rating (0 to 100 scale) [3] | Kochia plant response rating (kochia (Kochia scoparia) [4]) | Kochia plant response rating (0 to 100 scale) (kochia (Kochia scoparia) [4]) | Pigweed plant response rating [5] | Pigweed plant response rating (0 to 100 scale) [5] | Ragweed plant response rating [6] | Ragweed plant response rating (0 to 100 scale) [6] | Ryegrass, Italian plant response rating (0 to 100 scale) [7] | Ryegrass, Italian plant response rating [7] | Barnyardgrass plant response rating (0 to 100 scale) [8] | Barnyardgrass plant response rating [8] | Blackgrass plant response rating (0 to 100 scale) [9] | Blackgrass plant response rating [9] | Corn plant response rating (0 to 100 scale) (corn (Zea mays)) | Corn plant response rating (corn (Zea mays)) | further results |
| --- | --- | --- | --- | --- | --- | --- | --- | --- | --- | --- | --- | --- | --- | --- | --- | --- | --- | --- | --- | --- | --- |
| CON=C(c1ccccc1C1CC1)c1c(O)c(C)nn(C)c1=O [Compound 104] | 90 | 100 | 60 | 80 | 80 | 100 | 20 | 70 | 70 | 70 | 50 | 80 | 100 | 90 | 80 | 40 | 90 | 80 | 30 | 30 | Foxtail, Giant plant response rating (0 to 100 scale) [10]: 80; Foxtail, Giant plant response rating [10]: 70; Galium plant response rating (0 to 100 scale) [11]: 100; Galium plant response rating [11]: 90; Kochia plant response rating (0 to 100 scale) (kochia (Kochia scoparia) [12]): 80; Kochia plant response rating (kochia (Kochia scoparia) [12]): 70; Pigweed plant response rating (0 to 100 scale) [13]: 90; Pigweed plant response rating [13]: 70; Ragweed plant response rating (0 to 100 scale) [14]: 90; Ragweed plant response rating [14]: 80; Wheat plant response rating (0 to 100 scale) [15]: 80; Wheat plant response rating [15]: 40; Plant response rating, Barnyardgrass (0 to 100 scale, 0 is no effect, 100 is complete control) [16]: 0; Plant response rating, Ducksalad (0 to 100 scale, 0 is no effect, 100 is complete control) [17]: 0; Plant response rating, Rice (0 to 100 scale, 0 is no effect, 100 is complete control) (rice (Oryza sativa)): 0; Plant response rating, Sedge, Umbrella (0 to 100 scale, 0 is no effect, 100 is complete control) [18]: 0 |
| CON=C(c1ccccc1C1CC1)c1c(O)c(C)nn(C)c1=O [Compound 105] | 90 | 100 | 60 | 80 | 60 | 90 | 10 | 70 | 70 | 70 | 50 | 60 | 90 | 90 | 80 | 40 | 90 | 80 | 30 | 10 | Foxtail, Giant plant response rating (0 to 100 scale) [10]: 80; Foxtail, Giant plant response rating [10]: 70; Galium plant response rating (0 to 100 scale) [11]: 90; Galium plant response rating [11]: 90; Kochia plant response rating (0 to 100 scale) (kochia (Kochia scoparia) [12]): 80; Kochia plant response rating (kochia (Kochia scoparia) [12]): 70; Pigweed plant response rating (0 to 100 scale) [13]: 70; Pigweed plant response rating [13]: 60; Ragweed plant response rating (0 to 100 scale) [14]: 90; Ragweed plant response rating [14]: 90; Wheat plant response rating (0 to 100 scale) [15]: 80; Wheat plant response rating [15]: 60; Plant response rating, Barnyardgrass (0 to 100 scale, 0 is no effect, 100 is complete control) [16]: 0; Plant response rating, Ducksalad (0 to 100 scale, 0 is no effect, 100 is complete control) [17]: 0; Plant response rating, Rice (0 to 100 scale, 0 is no effect, 100 is complete control) (rice (Oryza sativa)): 0; Plant response rating, Sedge, Umbrella (0 to 100 scale, 0 is no effect, 100 is complete control) [18]: 0 |
| Cc1nn(C)c(=O)c(C(=NOCC=CCl)c2ccc(F)c3ccccc23)c1O [Compound 106] | 60 | 90 | 50 | 90 | 100 | 100 | 0 | 20 | 50 | 80 | 40 | 80 | 100 | 70 | 90 | 80 | 90 | 80 | 30 | 20 | Foxtail, Giant plant response rating (0 to 100 scale) [10]: 70; Foxtail, Giant plant response rating [10]: 60; Galium plant response rating (0 to 100 scale) [11]: 90; Galium plant response rating [11]: 80; Kochia plant response rating (0 to 100 scale) (kochia (Kochia scoparia) [12]): 50; Kochia plant response rating (kochia (Kochia scoparia) [12]): 20; Pigweed plant response rating (0 to 100 scale) [13]: 80; Pigweed plant response rating [13]: 70; Ragweed plant response rating (0 to 100 scale) [14]: 90; Ragweed plant response rating [14]: 70; Wheat plant response rating (0 to 100 scale) [15]: 50; Wheat plant response rating [15]: 0; Plant response rating, Barnyardgrass (0 to 100 scale, 0 is no effect, 100 is complete control) [16]: 0; Plant response rating, Ducksalad (0 to 100 scale, 0 is no effect, 100 is complete control) [17]: 0; Plant response rating, Rice (0 to 100 scale, 0 is no effect, 100 is complete control) (rice (Oryza sativa)): 0; Plant response rating, Sedge, Umbrella (0 to 100 scale, 0 is no effect, 100 is complete control) [18]: 0 |
| Cc1nn(C)c(=O)c(C(=NOCC=CCl)c2ccc(F)c3ccccc23)c1O [Compound 107] | 70 | 90 | 70 | 90 | 80 | 100 | 0 | 30 | 60 | 80 | 20 | 80 | 90 | 70 | 90 | 80 | 80 | 80 | 20 | 0 | Foxtail, Giant plant response rating (0 to 100 scale) [10]: 80; Foxtail, Giant plant response rating [10]: 70; Galium plant response rating (0 to 100 scale) [11]: 90; Galium plant response rating [11]: 70; Kochia plant response rating (0 to 100 scale) (kochia (Kochia scoparia) [12]): 60; Kochia plant response rating (kochia (Kochia scoparia) [12]): 30; Pigweed plant response rating (0 to 100 scale) [13]: 100; Pigweed plant response rating [13]: 80; Ragweed plant response rating (0 to 100 scale) [14]: 90; Ragweed plant response rating [14]: 80; Wheat plant response rating (0 to 100 scale) [15]: 40; Wheat plant response rating [15]: 0; Plant response rating, Barnyardgrass (0 to 100 scale, 0 is no effect, 100 is complete control) [16]: 0; Plant response rating, Ducksalad (0 to 100 scale, 0 is no effect, 100 is complete control) [17]: 0; Plant response rating, Rice (0 to 100 scale, 0 is no effect, 100 is complete control) (rice (Oryza sativa)): 0; Plant response rating, Sedge, Umbrella (0 to 100 scale, 0 is no effect, 100 is complete control) [18]: 0 |

Source: patent US20210045385A1, “PYRIDAZINONE-SUBSTITUTED KETOXIMES AS HERBICIDES” (FMC Corporation, priority 2018, published 2021)
